Test results: ChEMBL document CHEMBL1142479, “Studies on the synthesis of neamine-dinucleosides and neamine-PNA conjugates and their interaction with RNA” (Bioorg Med Chem Lett, 2008)
pKd: −log10 of the molar value.

Legend:
[1] = Binding affinity to 16S RNA by surface plasmon resonance
[2] = Binding affinity to 18S RNA by surface plasmon resonance
[3] = Binding affinity to trans-activation response RNA by surface plasmon resonance
[4] = Ratio of Kd for 18S RNA to Kd for 16S RNA

Structure (SMILES) | pKd [1] | pKd [2] | pKd [3] | Ratio [4]
Cc1cn([C@H]2C[C@H](O)[C@@H](COP(=O)(O)O[C@H]3C[C@H](n4ccc(=O)[nH]c4=O)O[C@@H]3C(=O)NCCN[C@H]3[C@@H](O)[C@H](N)C[C@H](N)[C@H]3O[C@H]3O[C@H](CN)[C@@H](O)[C@H](O)[C@H]3N)O2)c(=O)[nH]c1=O | 3.45 | 2.92 | 3.00 | 3.45
Cc1cn([C@H]2C[C@H](OP(=O)(O)OC[C@H]3O[C@@H](n4cc(C)c(=O)[nH]c4=O)C[C@@H]3O)[C@@H](C(=O)NCCCCCCN[C@H]3[C@@H](O)[C@H](N)C[C@H](N)[C@H]3O[C@H]3O[C@H](CN)[C@@H](O)[C@H](O)[C@H]3N)O2)c(=O)[nH]c1=O | 3.68 | 3.58 | 3.94 | 1.28
Cc1cn([C@H]2C[C@H](OP(=O)(O)OC[C@H]3O[C@@H](n4cc(C)c(=O)[nH]c4=O)C[C@@H]3O)[C@@H](C(=O)NCCCN[C@H]3[C@@H](O)[C@H](N)C[C@H](N)[C@H]3O[C@H]3O[C@H](CN)[C@@H](O)[C@H](O)[C@H]3N)O2)c(=O)[nH]c1=O | 3.50 | 3.26 | 3.27 | 1.76
Cc1cn([C@H]2C[C@H](OP(=O)(O)OC[C@H]3O[C@@H](n4cc(C)c(=O)[nH]c4=O)C[C@@H]3O)[C@@H](C(=O)NCCN[C@H]3[C@@H](O)[C@H](N)C[C@H](N)[C@H]3O[C@H]3O[C@H](CN)[C@@H](O)[C@H](O)[C@H]3N)O2)c(=O)[nH]c1=O | 3.52 | 3.26 | 3.20 | 1.8
Cc1cn([C@H]2C[C@H](OP(=O)(O)OC[C@H]3O[C@@H](n4ccc(=O)[nH]c4=O)C[C@@H]3O)[C@@H](C(=O)NCCN[C@H]3[C@@H](O)[C@H](N)C[C@H](N)[C@H]3O[C@H]3O[C@H](CN)[C@@H](O)[C@H](O)[C@H]3N)O2)c(=O)[nH]c1=O | 3.64 | 3.32 | 3.32 | 2.11
NC[C@H]1O[C@H](O[C@H]2[C@H](O)[C@@H](O)[C@H](N)C[C@@H]2N)[C@H](N)[C@@H](O)[C@@H]1O [NEAMINE] | 4.96 | 4.59 | 4.96 | 2.36

Continued by rising pKd [1], values first:

pKd [1] | pKd [2] | pKd [3] | Ratio [4] | Structure (SMILES)
3.74 | 3.39 | 3.38 | 2.24 | NC[C@H]1O[C@H](O[C@H]2[C@@H](NCCNC(=O)[C@H]3O[C@@H](n4ccc(=O)[nH]c4=O)C[C@@H]3OP(=O)(O)OC[C@H]3O[C@@H](n4ccc(=O)[nH]c4=O)C[C@@H]3O)[C@@H](O)[C@H](N)C[C@@H]2N)[C@H](N)[C@@H](O)[C@@H]1O
4.77 | 4.46 | 4.96 | 2.06 | NCCN(CC(=O)NCCN(CC(=O)NCCN[C@H]1[C@@H](O)[C@H](N)C[C@H](N)[C@H]1O[C@H]1O[C@H](CN)[C@@H](O)[C@H](O)[C@H]1N)C(=O)Cn1ccc(=O)[nH]c1=O)C(=O)Cn1ccc(=O)[nH]c1=O
4.80 | 4.92 | 4.92 | 0.75 | NCCN(CC(=O)NCCN[C@H]1[C@@H](O)[C@H](N)C[C@H](N)[C@H]1O[C@H]1O[C@H](CN)[C@@H](O)[C@H](O)[C@H]1N)C(=O)Cn1cnc2c(N)ncnc21
4.85 | 4.77 | 4.62 | 1.21 | NCCN(CC(=O)NCCN[C@H]1[C@@H](O)[C@H](N)C[C@H](N)[C@H]1O[C@H]1O[C@H](CN)[C@@H](O)[C@H](O)[C@H]1N)C(=O)Cn1ccc(=O)[nH]c1=O
4.92 | 4.60 | 5.10 | 2.08 | Cc1cn(CC(=O)N(CCN)CC(=O)NCCN(CC(=O)NCCN[C@H]2[C@@H](O)[C@H](N)C[C@H](N)[C@H]2O[C@H]2O[C@H](CN)[C@@H](O)[C@H](O)[C@H]2N)C(=O)Cn2ccc(=O)[nH]c2=O)c(=O)[nH]c1=O
4.96 | 4.70 | 5.22 | 1.81 | Cc1cn(CC(=O)N(CCNC(=O)CN(CCN)C(=O)Cn2ccc(=O)[nH]c2=O)CC(=O)NCCN[C@H]2[C@@H](O)[C@H](N)C[C@H](N)[C@H]2O[C@H]2O[C@H](CN)[C@@H](O)[C@H](O)[C@H]2N)c(=O)[nH]c1=O
5.05 | 5.00 | 5.30 | 1.11 | Cc1cn(CC(=O)N(CCN)CC(=O)NCCN(CC(=O)NCCN[C@H]2[C@@H](O)[C@H](N)C[C@H](N)[C@H]2O[C@H]2O[C@H](CN)[C@@H](O)[C@H](O)[C@H]2N)C(=O)Cn2cc(C)c(=O)[nH]c2=O)c(=O)[nH]c1=O
5.10 | 4.96 | 5.00 | 1.38 | Cc1cn(CC(=O)N(CCN)CC(=O)NCCN[C@H]2[C@@H](O)[C@H](N)C[C@H](N)[C@H]2O[C@H]2O[C@H](CN)[C@@H](O)[C@H](O)[C@H]2N)c(=O)[nH]c1=O
